Article PMC5308254, “Bioactivity of Natural and Engineered Antimicrobial Peptides from Venom of the Scorpions Urodacus yaschenkoi and U. manicatus” (Toxins, 2017)
No end group written: not given here.

What was measured:
[1] = system: Micrococcus luteus (DSM20030); test: Growth inhibition assay (MIC), M. luteus; type: cell-based; conditions: 384-well plates, LB, 30 °C, peptide 0.015–250 µM; MIC = concentration at which growth was totally inhibited; average of n ≥ 3; dash = no inhibition
Procedure: (§1) The minimal inhibitory concentration (MIC) of each AMPs was determined against the Gram-positive bacteria Listeria monocytogenes (DSM20600), L. grayi (DSM20601), L. fleischmannii (DSM24998), Staphylococcus aureus (DSM2569) and Micrococcus luteus (DSM20030), and the Gram-negative species Escherichia coli (D31) and Pseudomonas aeruginosa (DSM50071). The scorpion peptides were prepared at concentrations of 0.015–250 μM. The assays were carried out in 384-well plates (Greiner Bio One, Frickenhausen, Germany) using Brain Heart Infusion Broth (BHIB) medium for Listeria spp., Tryptic Soy Broth (TSB) for S. aureus, and lysogeny broth (LB) for the others. The bacteria were cultivated overnight at either 37 °C (Listeria spp., S. aureus, E. coli and P. aeruginosa) or 30 °C (M. luteus) and subcultured in fresh media before the growth inhibition assays. Growth inhibition was measured as previously described.

[2] = system: L. fleischmannii (DSM24998); test: Growth inhibition assay (MIC), L. fleischmannii; type: cell-based, Listeria fleischmannii; conditions: 384-well plates, BHIB, 37 °C, peptide 0.015–250 µM; growth totally inhibited; average of n ≥ 3; dash = no inhibition
Procedure: as §1

[3] = system: L. grayi (DSM20601); test: Growth inhibition assay (MIC), L. grayi; type: cell-based, Listeria grayi; conditions: 384-well plates, BHIB, 37 °C, peptide 0.015–250 µM; growth totally inhibited; average of n ≥ 3; dash = no inhibition
Procedure: as §1

[4] = system: Escherichia coli (D31); test: Growth inhibition assay (MIC), E. coli; type: cell-based; conditions: 384-well plates, LB, 37 °C, peptide 0.015–250 µM; growth totally inhibited; average of n ≥ 3; dash = no inhibition
Procedure: as §1

[5] = system: baby hamster kidney cells (BHK21); test: Cytotoxicity, alamarBlue, BHK-21 cells; type: cell-based; conditions: 2 h at 37 °C, 0.1–100 µM, alamarBlue fluorescence, non-linear fit, n ≥ 3
Procedure: (§2) Cytotoxicity was evaluated using the baby hamster kidney cell line (BHK-21) included in F2H®-Kit Basic (Chromotek, Planegg-Martinsried, Germany). The BHK-21 cells were grown in 25-cm^2 cell culture flasks (Greiner Bio One, Frickenhausen, Germany) containing Dulbecco’s Modified Eagle’s Medium (DMEM) supplemented with 4.5 g/L glucose, 110 mg/L sodium pyruvate and L-glutamine, and 10% fetal bovine serum (FBS), and were maintained in an NU-5810 incubator (ibs tecnomara, Fernwald, Germany) at 37 °C with a 5% CO2 atmosphere. The cells were subcultured at ~90% confluence by detaching with 0.25% trypsin and 0.03% EDTA (Sigma-Aldrich, St Louis, MO, USA). The AMPs were dissolved in water and diluted to final concentrations of 0.1, 1, 10 and 100 µM in DMEM.
(§3) BHK-21 cells were prepared and tested as previously described. Confluent cells were detached, counted and seeded at a concentration of 8.5 × 10^4 cell/mL in a 96-well culture plate (Greiner Bio One-Cell Star) 48 h before each experiment. The cells were rinsed with 100 µL PBS before adding 100 µL of the AMP solution and incubating for 2 h at 37 °C. The AMP solution was then removed and the cells were rinsed again with PBS before staining with 10% v/v alamarBlue™ Dye (Thermo Fisher Scientific, Schwerte, Germany) in DMEM for 1 h. The fluorescence of the metabolized alamarBlue™ Dye was measured in an Eon microplate reader using excitation and emission filters of 528 and 590 nm, respectively. DMEM and cells exposed to DMEM without AMPs were included as a blank reference and negative control, respectively. Four independent experiments were carried out for each AMP concentration in triplicate. To assess the percentage of viable cells compared to the control, the data were analyzed with GraphPad Prism v5.0 software using non-linear regression to fit the curve (Figure S2). The EC50 was reported as the AMP concentration that reduces cell viability by 50%.

[6] = Cytotoxicity, alamarBlue, BHK-21 cells; type: cell-based, hamster; conditions: hamster, 2 h at 37 °C, 0.1–100 µM, alamarBlue fluorescence, non-linear fit, concentration reducing viability by 50%, n ≥ 3, read-out: EC50 (effective cytotoxic concentration)
Procedure: as §2, §3

[7] = system: Listeria monocytogenes (DSM20600); test: Growth inhibition assay (MIC), L. monocytogenes; type: cell-based; conditions: 384-well plates, BHIB, 37 °C, peptide 0.015–250 µM; growth totally inhibited; average of n ≥ 3; dash = no inhibition
Procedure: as §1

[8] = system: Staphylococcus aureus (DSM2569); test: Growth inhibition assay (MIC), S. aureus; type: cell-based; conditions: 384-well plates, TSB, 37 °C, peptide 0.015–250 µM; growth totally inhibited; average of n ≥ 3; dash = no inhibition
Procedure: as §1

[9] = system: pig erythrocytes; test: Hemolytic activity on pig erythrocytes; type: cell-based; conditions: for percentage of hemolysis: 100 µM peptide (highest tested), 10% Triton X-100 = 100% hemolysis; for percentage of hemolysis / HC10 (hemolytic concentration) / HC90 (hemolytic concentration) / HC50 (hemolytic concentration): 1 h at 37 °C; for HC10 (hemolytic concentration) / HC90 (hemolytic concentration) / HC50 (hemolytic concentration): 6.25–100 µM, absorbance 570 nm, non-linear fit; for HC10 (hemolytic concentration) / HC90 (hemolytic concentration): n ≥ 3; for HC50 (hemolytic concentration): n ≥ 3, n.c. (100) = not convergent at 100 µM
Procedure: The hemolytic activity of each AMP was determined using pig erythrocytes. Serial dilutions (6.25–100 µM) of each AMP were prepared, and after incubation for 1 h at 37 °C the cells were centrifuged and the absorbance of the supernatant was measured at 570 nm using an Eon Microplate Spectrophotometer (BioTek Instruments, Winooski, VT, USA). Three independent experiments were carried out for each concentration in triplicate. PBS and 10% Triton X–100 were used as negative and positive controls, respectively. The percentage hemolysis was calculated using the formula 100((Apeptide–APBS)/(Atriton–APBS)). The AMP concentration causing 50% hemolysis (HC50) of the pig erythrocytes was determined by non-linear regression with the data fitted to the logistical sigmoidal equation, using GraphPad Prism v5.0 (GraphPad Software, San Diego, CA, USA) (Figure S2).

Substance | MIC M. luteus [1] [µM] | MIC L. fleischmannii [2] [µM] | MIC L. grayi [3] [µM] | MIC E. coli [4] [µM] | EC10 (effective cytotoxic concentration) [5] [µM] | EC90 (effective cytotoxic concentration) [5] [µM] | CC50 at 2 h [6] [µM] | MIC L. monocytogenes [7] [µM] | MIC S. aureus [8] [µM] | percentage of hemolysis [9] | HC10 (hemolytic concentration) [9] [µM] | HC90 (hemolytic concentration) [9] | HC50 (hemolytic concentration) [9] [µM] | hemolytic activity (in words) [9]
FFSALLSGIKSLF-NH2 [Um4] | 8 | 4 | 15 | 8 | 3.22 | 261 | 87 | 8 | 15 |  |  |  |  | 
FLSTIWNGIKSLF-NH2 [D2] | 4 | 15 |  |  | 13.95 | 1130 | 377 | 15 | 8 | 64% | 2.94 | 200.83 µM | 24.48 | 
FPFLKLSLKIPKSAIKSAIKRL-NH2 [D10] | 0.25 | 30 | 8 | 8 | 5.24 | 424.30 | 141 | 30 |  | ~ 10% | 149.75 | 19,894.17 µM | 1726 | 
FPFLLSLIPSAISAIKRL-NH2 [Uy234] | 2 |  | 4 |  | 0.23 | 18.86 | 6.29 | 2 |  |  | 55.14 | 198.04 µM | 104.50 | 
GFWGKLLEGVKKAI-NH2 [D5] | 8 | 15 | 8 | 15 | 2.50 | 202.90 | 67.6 | 15 |  | ~ 10% | 110.86 | 24,141.72 µM | 1636 | 
GFWGKLWKPVKKAI-NH2 [D4] | 2 | 15 | 8 |  | 36.30 | 2940 | 980 | 30 |  |  |  |  |  | no hemolytic activity
IFGAIWSGIKSLF-NH2 [D1] | 4 | 4 | 8 | 8 | 0.69 | 55.75 | 18.6 | 4 |  |  | 15.50 | 148.51 µM | 48 | 
IFKAIWSGIKSLF-NH2 [Um5] | 2 | 2 | 2 | 15 | 0.36 | 29.12 | 9.71 | 2 |  |  | 11.944 | 293.90 µM | 59.25 | 
ILSAIWSGIKGLL-NH2 [Uy17] | 15 |  |  |  | 2.73 | 220.80 | 73.6 | 15 | 30 |  | 26.65 | 718.55 µM | 138.40 | 
ILSAIWSGIKSLF-NH2 [UyCT3] | 4 | 4 | 8 | 8 | 0.57 | 46.12 | 15.4 | 4 |  |  | 15.78 | 214.22 µM | 58.15 | 
ISQSDAILSAIWSGIKSLF-NH2 [Um2] | 4 |  |  |  | 0.58 | 47.12 | 15.7 |  |  |  | 2.36 | 7033.22 µM | 129 | 
